Measurements as given in patent US11713338B2, “Cyclic peptides multimers targeting α-4-β-7 integrin” (priority 2016, dated 2023).

Legend:
[1] = biological target: T1, recombinant integrin α4β1 (Homo sapiens, UniProt P05556+P13612); test: Integrin α4β1—VCAM-1 competition ELISA; type: binding; conditions: read-out: ELISA a4b1 Assay IC50
T1 construct: purchased R&D Systems 5397-A3-050
Procedure: Integrin α4β1—VCAM-1 Competition ELISA
The plate was incubated at 4° C. overnight. […] The plate was then incubated for 1 hour at room temperature. The plate was washed three times with wash buffer (50 mM Tris, 100 mM NaCl, 1 mM MnCl2, 0.05% Tween). To each well, 50 μl of compound diluted in assay buffer was added by transfer from a compound serial dilution plate. […] The plate was incubated at room temperature with shaking (300 rpm) for 2 hours to reach binding equilibrium. Then the plate was washed three times in wash buffer and 100 μl anti-human IgG Fc specific-HRP (Abcam, Ab97225) diluted at 1:2000 in assay buffer was added to each well. The plate was incubated at room temperature for 1 hour under agitation.

[2] = biological target: T2, recombinant integrin α4β7 (Homo sapiens, UniProt P13612+P26010, DEL724-798); test: Integrin α4β7—MAdCAM-1 ELISA competition assay; type: binding; conditions: for ELISA Assay Ratio b1/b7: ratio of a4b1 to a4b7 ELISA IC50; for IC50: read-out: ELISA a4b7 Assay IC50
T2 construct: purchased R&D Systems 5397-A3-050
T2 sequence (P13612 34-970 limits assumed): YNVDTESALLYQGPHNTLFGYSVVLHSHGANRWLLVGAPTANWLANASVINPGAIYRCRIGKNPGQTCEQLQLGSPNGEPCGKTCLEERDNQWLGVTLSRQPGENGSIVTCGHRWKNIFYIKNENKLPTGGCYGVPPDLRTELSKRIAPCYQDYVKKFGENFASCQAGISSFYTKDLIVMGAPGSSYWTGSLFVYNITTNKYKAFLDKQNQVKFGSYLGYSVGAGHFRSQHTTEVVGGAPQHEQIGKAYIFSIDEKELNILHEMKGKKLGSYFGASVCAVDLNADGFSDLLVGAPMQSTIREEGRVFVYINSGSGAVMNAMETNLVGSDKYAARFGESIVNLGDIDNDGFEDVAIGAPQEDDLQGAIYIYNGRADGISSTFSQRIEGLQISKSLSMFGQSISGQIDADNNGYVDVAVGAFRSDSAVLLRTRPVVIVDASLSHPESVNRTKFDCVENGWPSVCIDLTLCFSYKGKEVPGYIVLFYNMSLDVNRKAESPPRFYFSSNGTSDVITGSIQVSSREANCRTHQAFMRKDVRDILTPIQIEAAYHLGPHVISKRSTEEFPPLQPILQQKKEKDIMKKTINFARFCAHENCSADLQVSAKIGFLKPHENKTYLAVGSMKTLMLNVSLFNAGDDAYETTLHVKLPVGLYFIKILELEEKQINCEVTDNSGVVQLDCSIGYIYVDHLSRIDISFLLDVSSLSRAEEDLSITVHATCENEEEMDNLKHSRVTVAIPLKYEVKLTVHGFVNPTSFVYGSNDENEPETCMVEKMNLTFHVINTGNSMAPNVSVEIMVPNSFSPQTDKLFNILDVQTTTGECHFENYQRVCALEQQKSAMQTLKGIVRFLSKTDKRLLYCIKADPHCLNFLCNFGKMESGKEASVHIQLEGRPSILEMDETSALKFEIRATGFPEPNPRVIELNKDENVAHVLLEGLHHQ
T2 sequence (P26010 20-723 limits assumed): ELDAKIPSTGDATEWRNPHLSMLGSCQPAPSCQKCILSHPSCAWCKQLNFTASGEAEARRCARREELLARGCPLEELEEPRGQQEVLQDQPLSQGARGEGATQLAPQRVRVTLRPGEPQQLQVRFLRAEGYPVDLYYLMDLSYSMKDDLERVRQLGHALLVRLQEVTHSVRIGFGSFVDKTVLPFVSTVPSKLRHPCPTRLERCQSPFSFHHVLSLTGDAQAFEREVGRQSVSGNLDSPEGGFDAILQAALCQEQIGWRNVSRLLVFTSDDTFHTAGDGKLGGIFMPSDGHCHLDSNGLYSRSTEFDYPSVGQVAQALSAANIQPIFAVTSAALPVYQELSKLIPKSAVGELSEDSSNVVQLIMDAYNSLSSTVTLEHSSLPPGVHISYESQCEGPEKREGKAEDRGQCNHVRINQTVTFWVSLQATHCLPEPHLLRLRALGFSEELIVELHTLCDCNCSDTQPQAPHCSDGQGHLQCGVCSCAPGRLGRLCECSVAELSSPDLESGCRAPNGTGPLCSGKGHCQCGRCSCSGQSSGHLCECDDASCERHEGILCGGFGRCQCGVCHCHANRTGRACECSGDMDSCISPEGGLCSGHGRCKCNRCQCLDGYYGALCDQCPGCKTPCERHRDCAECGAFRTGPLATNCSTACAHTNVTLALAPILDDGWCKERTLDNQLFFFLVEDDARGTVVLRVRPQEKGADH

T1 sequence (P05556 21-728 limits assumed, one chain of several): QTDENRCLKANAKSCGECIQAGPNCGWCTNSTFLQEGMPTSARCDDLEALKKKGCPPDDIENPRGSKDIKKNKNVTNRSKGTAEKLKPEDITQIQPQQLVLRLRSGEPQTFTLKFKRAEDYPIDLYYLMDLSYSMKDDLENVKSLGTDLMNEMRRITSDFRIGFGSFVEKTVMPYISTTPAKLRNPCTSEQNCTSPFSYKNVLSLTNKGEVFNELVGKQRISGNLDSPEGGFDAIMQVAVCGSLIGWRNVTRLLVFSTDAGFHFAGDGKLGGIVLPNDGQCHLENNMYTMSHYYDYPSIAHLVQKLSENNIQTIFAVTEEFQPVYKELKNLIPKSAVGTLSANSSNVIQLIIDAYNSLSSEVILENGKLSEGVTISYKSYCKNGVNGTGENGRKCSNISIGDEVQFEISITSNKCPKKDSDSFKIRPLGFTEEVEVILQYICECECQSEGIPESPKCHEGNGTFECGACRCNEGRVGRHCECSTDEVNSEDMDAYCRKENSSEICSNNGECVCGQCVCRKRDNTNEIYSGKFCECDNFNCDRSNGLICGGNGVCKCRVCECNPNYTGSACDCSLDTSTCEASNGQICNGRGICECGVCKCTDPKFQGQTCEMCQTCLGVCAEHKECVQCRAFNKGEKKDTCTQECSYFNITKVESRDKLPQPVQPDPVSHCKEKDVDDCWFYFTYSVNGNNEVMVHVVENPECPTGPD

`CC(C)C[C@@H]1NC(=O)[C@H](Cc2csc(-c3ccncc3)n2)NC(=O)[C@@H]2CCCN2[C@H](C(=O)NC(C)(C)C)[C@H](C)NC(=O)[C@H]([C@@H](C)O)NC(=O)[C@H](CC(=O)O)NC1=O` [Compound 97] was tested, and the IC50 [1] was 311 nM, the “ELISA Assay Ratio b1/b7” value [2] was 2.5 and the IC50 [2] was 124 nM.

With `CC(C)C[C@@H]1NC(=O)CN(C)C(=O)[C@H](Cc2cccc(I)c2)NC(=O)[C@@H]2CCCN2[C@H](C(=O)NC(C)(C)C)[C@H](C)NC(=O)[C@H]([C@@H](C)O)NC(=O)[C@H](CC(=O)O)NC1=O` [Compound 106] the IC50 [1] was 1110 nM, the “ELISA Assay Ratio b1/b7” value [2] was 18.7 and the IC50 [2] was 59 nM.

In the case of `CC(C)C[C@@H]1NC(=O)CN(C)C(=O)[C@H](Cc2ccc(I)cc2)NC(=O)[C@@H]2CCCN2[C@H](C(=O)NC(C)(C)C)[C@H](C)NC(=O)[C@H]([C@@H](C)O)NC(=O)[C@H](CC(=O)O)NC1=O` [Compound 107], the IC50 [1] is reported as 2390 nM, the “ELISA Assay Ratio b1/b7” value [2] is reported as 16.0 and the IC50 [2] is reported as 150 nM.

For `CC(C)C[C@@H]1NC(=O)[C@@H](CCCCN)NC(=O)[C@H](Cc2ccc(-c3ccccc3)cc2)NC(=O)[C@@H]2CCCN2[C@H](C(=O)NC(C)(C)C)[C@H](C)NC(=O)[C@H]([C@@H](C)O)NC(=O)[C@H](CC(=O)O)NC1=O` [Compound 110], the IC50 [1] was 3920 nM, the “ELISA Assay Ratio b1/b7” value [2] was 21.3 and the IC50 [2] was 185 nM.

For `CC(C)C[C@@H]1NC(=O)CN(C)C(=O)[C@H](Cc2ccc(-c3ccccc3)cc2)NC(=O)[C@@H]2CCCN2[C@H](C(=O)NC(C)(C)C)[C@H](C)NC(=O)[C@H]([C@@H](C)O)NC(=O)[C@H](CC(=O)O)NC1=O` [Compound 116], the IC50 [1] was 1380 nM, the “ELISA Assay Ratio b1/b7” value [2] was 8.4 and the IC50 [2] was 166 nM.

In the case of `CC(C)C[C@@H]1NC(=O)CN(C)C(=O)[C@H](Cc2cccc3ccccc23)NC(=O)[C@@H]2CCCN2[C@H](C(=O)NC(C)(C)C)[C@H](C)NC(=O)[C@H]([C@@H](C)O)NC(=O)[C@H](CC(=O)O)NC1=O` [Compound 117], the IC50 [1] is reported as 1380 nM, the “ELISA Assay Ratio b1/b7” value [2] is reported as 8.7 and the IC50 [2] is reported as 158 nM.

With `CC(C)C[C@@H]1NC(=O)[C@@H](CCCCN)NC(=O)[C@H](Cc2ccc(O)cc2)NC(=O)[C@@H]2CCCN2[C@H](C(=O)NC(C)(C)C)[C@H](C)NC(=O)[C@H]([C@@H](C)O)N(C)C(=O)[C@H](CC(=O)O)NC1=O` [Compound 121] the IC50 [1] was 2190 nM, the “ELISA Assay Ratio b1/b7” value [2] was 11.4 and the IC50 [2] was 192 nM.

In the case of `COc1ccc(C[C@@H]2NC(=O)[C@@H]3CCCN3[C@H](C(=O)NC(C)(C)C)[C@H](C)NC(=O)[C@H]([C@@H](C)O)NC(=O)[C@H](CC(=O)O)NC(=O)[C@H](CC(C)C)NC(=O)[C@H]3CCCN3C2=O)cc1OC` [Compound 127], the IC50 [1] is reported as 196 nM, the “ELISA Assay Ratio b1/b7” value [2] is reported as 7.8 and the IC50 [2] is reported as 25 nM.

For `CC(C)C[C@@H]1NC(=O)[C@H]2CCCCN2C(=O)[C@H](Cc2cscn2)NC(=O)[C@@H]2CCCN2[C@H](C(=O)NC(C)(C)C)[C@H](C)NC(=O)[C@H]([C@@H](C)O)NC(=O)[C@H](CC(=O)O)NC1=O` [Compound 131], the IC50 [1] was 80 nM, the “ELISA Assay Ratio b1/b7” value [2] was 3.1 and the IC50 [2] was 26 nM.

For `CC(C)C[C@@H]1NC(=O)[C@H]2CCCCN2C(=O)[C@H](Cc2ccccc2I)NC(=O)[C@@H]2CCCN2[C@H](C(=O)NC(C)(C)C)[C@H](C)NC(=O)[C@H]([C@@H](C)O)NC(=O)[C@H](CC(=O)O)NC1=O` [Compound 133], the IC50 [1] was 80 nM, the “ELISA Assay Ratio b1/b7” value [2] was 5.3 and the IC50 [2] was 15 nM.

In the case of `COc1ccccc1-c1ccccc1C[C@@H]1NC(=O)[C@@H]2CCCN2[C@H](C(=O)NC(C)(C)C)[C@H](C)NC(=O)[C@H]([C@@H](C)O)NC(=O)[C@H](CC(=O)O)NC(=O)[C@H](CC(C)C)NC(=O)[C@H]2CCCCN2C1=O` [Compound 135], the IC50 [1] is reported as 119 nM, the “ELISA Assay Ratio b1/b7” value [2] is reported as 4.9 and the IC50 [2] is reported as 24 nM.

In the case of `COc1cccc(-c2ccccc2C[C@@H]2NC(=O)[C@@H]3CCCN3[C@H](C(=O)NC(C)(C)C)[C@H](C)NC(=O)[C@H]([C@@H](C)O)NC(=O)[C@H](CC(=O)O)NC(=O)[C@H](CC(C)C)NC(=O)[C@H]3CCCCN3C2=O)c1` [Compound 136], the IC50 [1] is reported as 209 nM, the “ELISA Assay Ratio b1/b7” value [2] is reported as 6.6 and the IC50 [2] is reported as 32 nM.
